According to patent US5677419A, “Cyclic vasoactive peptide analogs” (Hoffmann-La Roche Inc., priority 1994, dated 1997):
Where a SMILES comes first, the peptide text is derived from it. Bridges are numbered along the chain shown (N, C = ends). [ ]: non-standard residue; d: D form. 2Nal = N[C@@H](Cc1ccc2ccccc2c1)C(=O)O; Nle = CCCC[C@H](N)C(=O)O; Orn = NCCC[C@H](N)C(=O)O

What follows are compounds tested on guinea pig tracheal smooth muscle (assay: Tracheal relaxant activity of VIP analogs on isolated guinea pig tracheal rings). Details: cumulative concentration response, relaxation as % of maximum response to VIP (10^-6 M=100%), three tissues pooled, linear regression.
Format: cell-based
Description: The relaxant activity of the VIP analogs were studied in a model utilizing guinea pig trachea. [Wasserman, M. A. et al., in Vasoactive Intestinal Peptide, S. I. Said, ed., Raven Press, New York 1982, pp 177-184] All tissues were taken from male albino guinea pig weighing 400-600 g, anesthetized with urethane (2 g/kg, i.p.). After exanguination, the trachea were removed and divided into four ring segments (3 mm length). Each ring was suspended by 30 gauge stainless steel wires in a 10 mL jacketed tissue bath and attached via 4-0 silk thread to a GRASS force displacement transducer (model FT03C, Grass Instruments Co., Quincy, Mass.), for isometric recording of tension. The smooth muscle was bathed in modified Krebs solution of the following composition: NaCl, 120 mM; KCl, 4.7 mM; CaCl2, 2.5 mM; MgSO4.7H2 O, 1.2 mM; NaHCO3, 25 mM; K2 HPO4 monobasic, 1.2 mM; and dextrose, 10 mM. Tissue baths were maintained at 37° C. and constantly bubbled with 95% O2 and 5% CO2. Responses were recorded on an 8 channel and a 4 channel HEWLETT-PACKARD (model 7702B and 7754A, respectively) recorder (Hewlett- Packard, Paramus, N.J.). Tracheal rings were placed under a resting tension of 1.5 g which was determined to be at or near optimal in preliminary experiments. Frequent readjustments of tension were required during the 60 minute stabilization period which followed. Tissues were rinsed at 15 minute intervals.
Cumulative concentration response curves were obtained for each tissue by successive […] increases in the bath concentration of VIP or VIP analogs according to the method of VanRossum [Arch. Int. Pharmacodyn., 143, 299-330 (1963)]. Only one cumulative dose response curve was obtained on a single tissue. To minimize variability between tissues, relaxant responses were expressed as a percentage of the maximum response obtained to VIP (10^-6 M=100%) added at the end of each concentration response experiment. Responses obtained from three tissues were pooled and EC50 values were determined by linear regression.
The results summarized in Table I show the tracheal relaxant activity of the VIP analogs in comparison to native VIP.

Row | Compound | EC50 [µM]
1 | CCCC[C@H](NC(=O)[C@H](CCC(N)=O)NC(=O)[C@H](CCCCN)NC(=O)[C@H](CCCNC(=N)N)NC(=O)[C@H](CC(C)C)NC(=O)[C@@H]1CCCCNC(=O)C[C@H](NC(=O)[C@@H](NC(=O)[C@H](Cc2ccccc2)NC(=O)[C@@H](NC(=O)[C@H](C)NC(=O)[C@H](CC(=O)O)NC(=O)[C@H](CO)NC(=O)[C@H](Cc2c[nH]cn2)NC(C)=O)C(C)C)[C@@H](C)O)C(=O)N[C@@H](CC(N)=O)C(=O)N[C@@H](Cc2ccc(O)cc2)C(=O)N[C@@H]([C@@H](C)O)C(=O)N1)C(=O)N[C@@H](C)C(=O)N[C@H](C(=O)N[C@@H](CCCCN)C(=O)N[C@@H](CCCCN)C(=O)N[C@@H](Cc1ccc(O)cc1)C(=O)N[C@@H](CC(C)C)C(=O)N[C@@H](CC(N)=O)C(=O)N[C@@H](CO)C(=O)N[C@H](C(=O)N[C@@H](CC(C)C)C(=O)N[C@H](C(N)=O)[C@@H](C)O)C(C)C)C(C)C [SEQ ID NO:20, Ac-[Lys^12,Nle^17,Val^26,Thr^28]-VIP cyclo (Asp^8 →Lys^12)] (Ac-HSDAVFTDNYTKLRKQ[Nle]AVKKYLNSVLT-NH2; lactam 8-12) | 0.014
2 | CCCC[C@H](NC(=O)[C@H](CCC(N)=O)NC(=O)[C@H](CCCCN)NC(=O)[C@H](CCCNC(=N)N)NC(=O)[C@H](CC(C)C)NC(=O)[C@@H]1CCCCNC(=O)CC[C@H](NC(=O)[C@@H](NC(=O)[C@H](Cc2ccccc2)NC(=O)[C@@H](NC(=O)[C@H](C)NC(=O)[C@H](CC(=O)O)NC(=O)[C@H](CO)NC(=O)[C@H](Cc2c[nH]cn2)NC(C)=O)C(C)C)[C@@H](C)O)C(=O)N[C@@H](CC(N)=O)C(=O)N[C@@H](Cc2ccc(O)cc2)C(=O)N[C@@H]([C@@H](C)O)C(=O)N1)C(=O)N[C@@H](C)C(=O)N[C@H](C(=O)N[C@@H](CCCCN)C(=O)N[C@@H](CCCCN)C(=O)N[C@@H](Cc1ccc(O)cc1)C(=O)N[C@@H](CC(C)C)C(=O)N[C@@H](CC(N)=O)C(=O)N[C@@H](CO)C(=O)N[C@H](C(=O)N[C@@H](CC(C)C)C(=O)N[C@H](C(N)=O)[C@@H](C)O)C(C)C)C(C)C [SEQ ID NO:21, Ac-[Glu^8,Lys^12,Nle^17,Val^26,Thr^28]-VIP cyclo (Glu^8 →Lys^12)] (Ac-HSDAVFTENYTKLRKQ[Nle]AVKKYLNSVLT-NH2; lactam 8-12) | 0.034
3 | CCCC[C@H](NC(=O)[C@H](CCC(N)=O)NC(=O)[C@H](CCCCN)NC(=O)[C@H](CCCNC(=N)N)NC(=O)[C@H](CC(C)C)NC(=O)[C@@H]1CCCCNC(=O)C[C@H](NC(=O)[C@H](CC(N)=O)NC(=O)[C@@H](NC(=O)[C@H](Cc2ccccc2)NC(=O)[C@@H](NC(=O)[C@H](C)NC(=O)[C@H](CC(=O)O)NC(=O)[C@H](CO)NC(=O)[C@H](Cc2c[nH]cn2)NC(C)=O)C(C)C)[C@@H](C)O)C(=O)N[C@@H](Cc2ccc(O)cc2)C(=O)N[C@@H]([C@@H](C)O)C(=O)N1)C(=O)N[C@@H](C)C(=O)N[C@H](C(=O)N[C@@H](CCCCN)C(=O)N[C@@H](CCCCN)C(=O)N[C@@H](Cc1ccc(O)cc1)C(=O)N[C@@H](CC(C)C)C(=O)N[C@@H](CC(N)=O)C(=O)N[C@@H](CO)C(=O)N[C@H](C(=O)N[C@@H](CC(C)C)C(=O)N[C@H](C(N)=O)[C@@H](C)O)C(C)C)C(C)C [SEQ ID NO:22, Ac-[Asn^8,Asp^9,Lys^12,Nle^17,Val^26,Thr^28]-VIP cyclo (Asp^9 →Lys^12)] (Ac-HSDAVFTNDYTKLRKQ[Nle]AVKKYLNSVLT-NH2; lactam 9-12) | 0.017
4 | CCCC[C@H](NC(=O)[C@H](CCC(N)=O)NC(=O)[C@H](CCCCN)NC(=O)[C@H](CCCNC(=N)N)NC(=O)[C@H](CC(C)C)NC(=O)[C@@H]1CCCNC(=O)C[C@H](NC(=O)[C@@H](NC(=O)[C@H](Cc2ccccc2)NC(=O)[C@@H](NC(=O)[C@H](C)NC(=O)[C@H](CC(=O)O)NC(=O)[C@H](CO)NC(=O)[C@H](Cc2c[nH]cn2)NC(C)=O)C(C)C)[C@@H](C)O)C(=O)N[C@@H](CC(N)=O)C(=O)N[C@@H](Cc2ccc(O)cc2)C(=O)N[C@@H]([C@@H](C)O)C(=O)N1)C(=O)N[C@@H](C)C(=O)N[C@H](C(=O)N[C@@H](CCCCN)C(=O)N[C@@H](CCCCN)C(=O)N[C@@H](Cc1ccc(O)cc1)C(=O)N[C@@H](CC(C)C)C(=O)N[C@@H](CC(N)=O)C(=O)N[C@@H](CO)C(=O)N[C@H](C(=O)N[C@@H](CC(C)C)C(=O)N[C@H](C(N)=O)[C@@H](C)O)C(C)C)C(C)C [SEQ ID NO:23, Ac-[Orn^12,Nle^17,Val^26,Thr^28]-VIP cyclo (Asp^8 →Orn^12)] (Ac-HSDAVFTDNYT[Orn]LRKQ[Nle]AVKKYLNSVLT-NH2; lactam 8-12) | 0.04
5 | CCCC[C@H](NC(=O)[C@H](CCC(N)=O)NC(=O)[C@H](CCCCN)NC(=O)[C@H](CCCNC(=N)N)NC(=O)[C@H](CC(C)C)NC(=O)[C@@H]1CC(=O)NCCCC[C@H](NC(=O)[C@@H](NC(=O)[C@H](Cc2ccccc2)NC(=O)[C@@H](NC(=O)[C@H](C)NC(=O)[C@H](CC(=O)O)NC(=O)[C@H](CO)NC(=O)[C@H](Cc2c[nH]cn2)NC(C)=O)C(C)C)[C@@H](C)O)C(=O)N[C@@H](CC(N)=O)C(=O)N[C@@H](Cc2ccc(O)cc2)C(=O)N[C@@H]([C@@H](C)O)C(=O)N1)C(=O)N[C@@H](C)C(=O)N[C@H](C(=O)N[C@@H](CCCCN)C(=O)N[C@@H](CCCCN)C(=O)N[C@@H](Cc1ccc(O)cc1)C(=O)N[C@@H](CC(C)C)C(=O)N[C@@H](CC(N)=O)C(=O)N[C@@H](CO)C(=O)N[C@H](C(=O)N[C@@H](CC(C)C)C(=O)N[C@H](C(N)=O)[C@@H](C)O)C(C)C)C(C)C [SEQ ID NO:24, Ac-[Lys^8,Asp^12,Nle^17,Val^26,Thr^28]-VIP cyclo (Lys^8 →Asp^12)] (Ac-HSDAVFTKNYTDLRKQ[Nle]AVKKYLNSVLT-NH2; lactam 8-12) | 0.038
6 | CCCC[C@H](NC(=O)[C@H](CCC(N)=O)NC(=O)[C@H](CCCCN)NC(=O)[C@H](CCCNC(=N)N)NC(=O)[C@H](CC(C)C)NC(=O)[C@@H]1CCCNC(=O)CC[C@H](NC(=O)[C@@H](NC(=O)[C@H](Cc2ccccc2)NC(=O)[C@@H](NC(=O)[C@H](C)NC(=O)[C@H](CC(=O)O)NC(=O)[C@H](CO)NC(=O)[C@H](Cc2c[nH]cn2)NC(C)=O)C(C)C)[C@@H](C)O)C(=O)N[C@@H](CC(N)=O)C(=O)N[C@@H](Cc2ccc(O)cc2)C(=O)N[C@@H]([C@@H](C)O)C(=O)N1)C(=O)N[C@@H](C)C(=O)N[C@H](C(=O)N[C@@H](CCCCN)C(=O)N[C@@H](CCCCN)C(=O)N[C@@H](Cc1ccc(O)cc1)C(=O)N[C@@H](CC(C)C)C(=O)N[C@@H](CC(N)=O)C(=O)N[C@@H](CO)C(=O)N[C@H](C(=O)N[C@@H](CC(C)C)C(=O)N[C@H](C(N)=O)[C@@H](C)O)C(C)C)C(C)C [SEQ ID NO:25, Ac-[Glu^8,Orn^12,Nle^17,Val^26,Thr^28]-VIP cyclo (Glu^8 →Orn^12)] (Ac-HSDAVFTENYT[Orn]LRKQ[Nle]AVKKYLNSVLT-NH2; lactam 8-12) | 0.016
7 | CCCC[C@H](NC(=O)[C@H](CCC(N)=O)NC(=O)[C@H](CCCCN)NC(=O)[C@H](CCCNC(=N)N)NC(=O)[C@H](CC(C)C)NC(=O)[C@H](CC(C)C)NC(=O)[C@@H](NC(=O)[C@H](Cc1ccc2ccccc2c1)NC(=O)[C@H](CC(N)=O)NC(=O)[C@H](CC(=O)O)NC(=O)[C@@H](NC(=O)[C@H](Cc1ccccc1)NC(=O)[C@@H](NC(=O)[C@H](C)NC(=O)[C@H](CC(=O)O)NC(=O)[C@H](CO)NC(=O)[C@H](Cc1c[nH]cn1)NC(C)=O)C(C)C)[C@@H](C)O)[C@@H](C)O)C(=O)N[C@@H](C)C(=O)N[C@@H](C)C(=O)N[C@@H](CCCCN)C(=O)N[C@H]1CCCCNC(=O)C[C@@H](C(=O)N[C@H](C(=O)N[C@@H](CC(C)C)C(=O)N[C@H](C(N)=O)[C@@H](C)O)C(C)C)NC(=O)[C@H](CC(N)=O)NC(=O)[C@H](CC(C)C)NC(=O)[C@H](Cc2ccc(O)cc2)NC1=O [SEQ ID NO:35, Ac-[2-Nal^10,Leu^12,Nle^17,Ala^19,Asp^25,Val^26,Thr^28]-VIP cyclo (Lys^21 →Asp^25)] (Ac-HSDAVFTDN[2Nal]TLLRKQ[Nle]AAKKYLNDVLT-NH2; lactam 21-25) | 0.0042
8 | CCCC[C@H](NC(=O)[C@H](CCC(N)=O)NC(=O)[C@H](CCCCN)NC(=O)[C@H](CCCNC(=N)N)NC(=O)[C@H](CC(C)C)NC(=O)[C@H](CC(C)C)NC(=O)[C@@H](NC(=O)[C@H](Cc1ccc(OC)cc1)NC(=O)[C@H](CC(N)=O)NC(=O)[C@H](CC(=O)O)NC(=O)[C@@H](NC(=O)[C@H](Cc1ccccc1)NC(=O)[C@@H](NC(=O)[C@H](C)NC(=O)[C@H](CC(=O)O)NC(=O)[C@H](CO)NC(=O)[C@H](Cc1c[nH]cn1)NC(C)=O)C(C)C)[C@@H](C)O)[C@@H](C)O)C(=O)N[C@@H](C)C(=O)N[C@@H](C)C(=O)N[C@@H](CCCCN)C(=O)N[C@H]1CCCCNC(=O)C[C@@H](C(=O)N[C@H](C(=O)N[C@@H](CC(C)C)C(=O)N[C@H](C(N)=O)[C@@H](C)O)C(C)C)NC(=O)[C@H](CC(N)=O)NC(=O)[C@H](CC(C)C)NC(=O)[C@H](Cc2ccc(O)cc2)NC1=O [SEQ ID NO:36, Ac-[O-Me-Tyr^10,Leu^12,Nle^17,Ala^19,Asp^25,Val^26,Thr^28]-VIP cyclo (Lys^21 →Asp^25)] (Ac-HSDAVFTDNY(Me)TLLRKQ[Nle]AAKKYLNDVLT-NH2; lactam 21-25) | 0.00084
